Results published in patent US7094909B2, “HIV protease inhibitors, compositions containing the same, their pharmaceutical uses and materials for their synthesis” (priority 2001, dated 2006).

How the values were obtained:
[1] = test system: HIV-1 (HIV-1 RF, HIV-1 NL4-3) in CEM-SS / MT-2 cells; assay: Cytopathic effect (CPE) inhibition assay (XTT/MTT dye reduction); type: cell-based; conditions: Human immunodeficiency virus 1, NL43; read-out: Ave CPE EC50
Method in brief: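 Readout is XTT reduction (A450, 4 h) after six days of culturing virus-infected (moi 0.025–0.819) or mock-infected CEM-SS/MT-2 cells, 2×10^4 per well, with half-log compound series. Antiviral EC50 and cytotoxic CC50 are relative to uninfected compound-free cells. Therapeutic index is CC50 divided by EC50.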

[2] = target: T1, HIV-1 protease (Q7S mutant form) (Human immunodeficiency virus type 1 group M subtype B, UniProt P04585, Q495S); assay: HIV-1 Protease RET assay; type: biochemical; conditions: Ave. Ki (nM), RET assay, Q7S enzyme, Morrison tight binding fit
T1 construct: made in house
Method in brief: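 Ki values fitted with the Morrison tight-binding equation from steady-state RET cleavage (ex 340, em 490 nm) of 5 μM RE(EDANS)SQNYPIVQK(DABCYL)R. Buffer pH 4.8 acetate, 1M NaCl, 5 mM DTT, 1 mg/ml BSA, 10% DMSO; 2 nM Q7S mutant dimer, 37 °C, 12 min.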

SMILES	EC50 [1]	Ki [2]
C=CCNC(=O)[C@H]1N(C(=O)[C@@H](O)[C@H](Cc2ccccc2)NC(=O)COc2c(C)cccc2C)CSC1(C)C [Example B23, (R)-3-{(2S,3S)-3-[2-(2,6-Dimethyl-phenoxy)-ethanoylamino]-2-hydroxy-4-phenyl-butanoyl}-5,5-dimethyl-thiazolidine-4-carboxylic acid allylamide]	294 nM	0.15 nM
C=CCNC(=O)[C@H]1N(C(=O)[C@@H](O)[C@H](Cc2ccccc2)NC(=O)c2cccc3[nH]ncc23)CSC1(C)C [Example B24, 1-H-indazole-4-carboxylic acid [3-(4-allylcarbamoyl-5,5-dimethyl-thiazolidin-3-yl)-1-benzyl-2-hydroxy-3-oxo-propyl]-amide]	512 nM	8.3 nM
C=CCNC(=O)[C@H]1N(C(=O)[C@@H](O)[C@H](Cc2ccccc2)NC(=O)CSc2nc[nH]n2)CSC1(C)C [Example B25, (R)-3-{(2S,3S)-2-Hydroxy-4-phenyl-3-[2-(1H-[1,2,4]triazol-3-ylsulfanyl)-ethanoylamino]-butanoyl}-5,5-dimethyl-thiazolidine-4-carboxylic acid allylamide]	> 1000 nM	21 nM
CC1(C)SCN(C(=O)[C@@H](O)[C@H](Cc2ccccc2)NC(=O)O[C@H]2CCOC2)[C@@H]1C(=O)NCC1CC1 [Example B26, {(1S,2S)-1-Benzyl-3-[(R)-4-(cyclopropylmethyl-carbamoyl)-5,5-dimethyl-thiazolidin-3-yl]-2-hydroxy-3-oxo-propyl}-carbamic acid (S)-(tetrahydro-furan-3-yl) ester]	348 nM	2.1 nM
Cc1cccc(C)c1OCC(=O)N[C@@H](Cc1ccccc1)[C@H](O)C(=O)N1CSC(C)(C)[C@H]1C(=O)NCC1CC1 [Example B27, (R)-3-{(2S,3S)-3-[2-(2,6-Dimethyl-phenoxy)-ethanoylamino]-2-hydroxy-4-phenyl-butanoyl}-5,5-dimethyl-thiazolidine-4-carboxylic acid cyclopropylmethyl-amide]	506 nM	0.5 nM
CC1(C)SCN(C(=O)[C@@H](O)[C@H](Cc2ccccc2)NC(=O)c2cccc3c2CCN3)[C@@H]1C(=O)NCC1CC1 [Example B28, 2,3-Dihydro-1H-indole-4-carboxylic acid {(1S,2S)-1-benzyl-3-[(R)-4-(cyclopropylmethyl-carbamoyl)-5,5-dimethyl-thiazoldin-3-yl]-2-hydroxy-3-oxo-propyl}-amide]	731 nM	4.2 nM
CC1(C)SCN(C(=O)[C@@H](O)[C@H](Cc2ccccc2)NC(=O)c2cccc3c2CCN3)[C@@H]1C(=O)N[C@H]1CCOc2ccccc21 [Example B29, 2,3-Dihydro-1H-indole-4-carboxylic acid {(1S,2S)-1-benzyl-3-[(R)-4-((S)-chroman-4-ylcarbamoyl)-5,5-dimethyl-thiazolidin-3-yl]-2-hydroxy-3-oxo-propyl}-amide]	63 nM	0.82 nM
CC1(C)SCN(C(=O)[C@@H](O)[C@H](Cc2ccccc2)NC(=O)CSc2nc[nH]n2)[C@@H]1C(=O)N[C@H]1CCOc2ccccc21 [Example B31, (R)-3-{(2S,3S)-2-Hydroxy-4-phenyl-3-[2-(1H-[1,2,4]triazol-3-ylsulfanyl)-ethanoylamino]-butanoyl}-5,5-dimethyl-thiazolidine-4-carboxylic acid (S)-chroman-4-ylamide]	> 1000 nM	4.7 nM
C#CCNC(=O)[C@H]1N(C(=O)[C@@H](O)[C@H](Cc2ccccc2)NC(=O)c2cccc3c2CCN3)CSC1(C)C [Example B34, 2,3-Dihydro-1H-indole-4-carboxylic acid [(1S,2S)-1-benzyl-3-((R)-5,5-dimethyl-4-prop-2-ynylcarbamoyl-thiazoldin-3-yl)-2-hydroxy-3-oxo-propyl]-amide]	389 nM	1.2 nM
C#CCNC(=O)[C@H]1N(C(=O)[C@@H](O)[C@H](Cc2ccccc2)NC(=O)c2cccc3[nH]ncc23)CSC1(C)C [Example B35, 1-H-indazole-4-carboxylic acid [1-benzyl-3-(5,5-dimethyl-4-prop-2-ynylcarbamoyl-thiazolidin-3-yl)-2-hydroxy-3-oxo-propyl]-amide]	564 nM	11 nM
C#CCNC(=O)[C@H]1N(C(=O)[C@@H](O)[C@H](Cc2ccccc2)NC(=O)COc2c(C)cccc2C)CSC1(C)C [Example B36, (R)-3-{(2S,3S)-3-[2-(2,6-Dimethyl-phenoxy)-ethanoylamino]-2-hydroxy-4-phenyl-butanoyl}-5,5-dimethyl-thiazolidine-4-carboxylic acid prop-2-ynylamide]	519 nM	< 0.1 nM
CC1(C)SCN(C(=O)[C@@H](O)[C@H](Cc2ccccc2)NC(=O)c2cccc3[nH]ncc23)[C@@H]1C(=O)NCc1ccco1 [Example B37, 1-H-indazole-4-carboxylic acid (1-benzyl-3-{4[(furan-2-ylmethyl)-carbamoyl]-5,5-dimethyl-thiazolidin-3-yl}-2-hydroxy-3-oxo-propyl)-amide]	529 nM	7.4 nM
Cc1cccc(C)c1OCC(=O)N[C@@H](Cc1ccccc1)[C@H](O)C(=O)N1CSC(C)(C)[C@H]1C(=O)NCc1ccco1 [Example B38, (R)-3-{(2S,3S)-3-[2-(2,6-Dimethyl-phenoxy)-ethanoylamino]-2-hydroxy-4-phenyl-butanoyl}-5,5-dimethyl-thiazolidine-4-carboxylic acid (furan-2-ylmethyl)-amide]	600 nM	0.16 nM
CC1(C)SCN(C(=O)[C@@H](O)[C@H](Cc2ccccc2)NC(=O)c2cccc3c2CCN3)[C@@H]1C(=O)NCc1ccco1 [Example B39, 2,3-Dihydro-1H-indole-4-carboxylic acid ((1S,2S)-1-benzyl-3-{(R)-4-[(furan-2-ylmethyl)-carbamoyl]-5,5-dimethyl-thiazolidin-3-yl}-2-hydroxy-3-oxo-propyl)-amide]	372 nM	1.9 nM
CC1(C)SCN(C(=O)[C@@H](O)[C@H](Cc2ccccc2)NC(=O)[C@@H]2CCCO2)[C@@H]1C(=O)NCc1ccco1 [Example B40, (R)-3-{(2S,3S)-2-Hydroxy-4-phenyl-3-[((S)-1-tetrahydro-furan-2-yl-methanoyl)-amino]-butanoyl}-5,5-dimethyl-thiazolidine-4-carboxylic acid (furan-2-ylmethyl)-amide]	> 1000 nM	15.1 nM
CC1(C)SCN(C(=O)[C@@H](O)[C@H](Cc2ccccc2)NC(=O)c2cccc3c2CCN3)[C@@H]1C(=O)N[C@@H]1C=CCCC1 [Example B41, 2,3-Dihydro-1H-indole-carboxylic acid {(1S,2S)-1-benzyl-3-[(R)-4-((S)-cyclohex-2-enylcarbamoyl)-5,5-dimethyl-thiazolidin-3-yl]-2-hydroxy-3-oxo-propyl}-amide]	268 nM	0.11 nM
CC1(C)SCN(C(=O)[C@@H](O)[C@H](Cc2ccccc2)NC(=O)c2cccc3c2CCN3)[C@@H]1C(=O)N[C@H]1CCc2ccccc21 [Example B42, 2,3-Dihydro-1H-indole-4carboxylic acid {(1S,2S)-1-benzyl-2-hydroxy-3-[(R)-4-((S)-indan-1-ylcarbamoyl)-5,5-dimethyl-thiazolidin-3-yl]-3-oxo-propyl}-amide]	155 nM	0.13 nM
Cc1ccc(C(=O)N[C@@H](Cc2ccccc2)[C@H](O)C(=O)N2CSC(C)(C)[C@H]2C(=O)N[C@H]2CCc3ccccc32)c(C)c1O [Example B43, (R)-3-((2S,3S)-2-Hydroxy-3-{[1-(3-hydroxy-2,4-dimethyl-phenyl)-methanoyl]-amino}-4-phenyl-butanoyl)-5,5-dimethyl-thiazolidine-4-carboxylic acid (S)-indan-1-ylamide]	375 nM	< 0.1 nM
CC1(C)SCN(C(=O)[C@@H](O)[C@H](Cc2ccccc2)NC(=O)c2cccc3c2CCN3)[C@@H]1C(=O)NC[C@H]1CCCO1 [Example B44, 2,3-Dihydro-1H-indole-4-carboxylic acid [(1S,2S)-1-benzyl-3-((R)-5,5-dimethyl-4-{[(R)-1-(tetrahydro-furan-2-yl)methyl]-carbamoyl}-thiazolidin-3-yl)-2-hydroxy-3-oxo-propyl]-amide]	660 nM	4.8 nM
CCCNC(=O)[C@H]1N(C(=O)[C@@H](O)[C@H](Cc2ccccc2)NC(=O)c2cccc3c2CCN3)CSC1(C)C [Example B45, 2,3-Dihydro-1H-indole-4-carboxylic acid [(1S,2S)-1-benzyl-3-((R)-5,5-dimethyl-4-propylcarbamoyl-thiazoldin-3-yl)-2-hydroxy-3-oxo-propyl]-amide]	572 nM	1.1 nM
C=CCOC(=O)N[C@@H](Cc1ccccc1)[C@H](O)C(=O)N1CSC(C)(C)[C@H]1C(=O)NCc1ccccc1Cl [Example B47, {(1S,2S)-1-Benzyl-3-[(R)-4(2-chloro-benzylcarbamoyl)-5,5-dimethyl-thiazolidin-3-yl]-2-hydroxy-3-oxo-propyl}-carbamic acid allyl ester]	1480 nM	1.9 nM
C#CCOC(=O)N[C@@H](Cc1ccccc1)[C@H](O)C(=O)N1CSC(C)(C)[C@H]1C(=O)NCc1ccccc1Cl [Example B48, {1-Benzyl-3-[4(2-chloro-benzylcarbamoyl)-5,5-dimethyl-thiazolidin-3-yl]-2-hydroxy-3-oxo-propyl}-carbamic acid prop-2-ynyl ester]	1480 nM	0.83 nM
